Measurements published in PubChem BioAssay AID270 (DTP/NCI, 2004).
Records with an inconclusive call do not appear. *1 amine or outer side, *2 acyl side, *3 side chain or, on linkers, in order; H or OH if unused. Where a SMILES comes first, the peptide text is derived from it. Bridges are numbered along the chain shown (N, C = ends). [ ]: non-standard residue; d: D form. The star is where a group is joined. X2 = CC(C)C(C)C(C(=O)[*:2])N(C)[*:1]; Picolinoyl(3-OH) = O=C(c1ncccc1O)*; NMePhg = CN[CH](C(=O)O)c1ccccc1; Hyp = O=C(O)[CH]1C[CH](O)CN1; Sar = CNCC(=O)O

Tested on: BDF1 mice, s.c. Lewis lung carcinoma, T/C %
Test: NCI In Vivo Anticancer Drug Screen. Data for tumor model Lewis Lung Carcinoma (subcutaneous) in B6D2F1 (BDF1) mice
How it was run: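 Antitumor effect in vivo is scored from survival or tumor burden, reported as treated relative to vehicle controls.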

[1] = endpoint: mean tumor weight, dose: 12.0 mg/kg/injection, schedule: Q01DX011 (ip), vehicle: saline, higher = larger tumour

CC(C)CC1NC(=O)C(NC(=O)c2ncccc2O)C(C)OC(=O)C(c2ccccc2)N(C)C(=O)C(C)NC(=O)C(C(C)C(C)C)N(C)C(=O)CN(C)C(=O)C2CC(O)CN2C1=O (stereo not given) ({Picolinoyl(3-OH)}-TL[Hyp][Sar][X2]A[NMePhg]; ester 1-C; configuration not given here)
T/C (endpoint: mean tumor weight, dose: 5.3 mg/kg/injection, schedule: Q01DX011 (ip), vehicle: saline, higher = larger tumour): 90 % of control | T/C (endpoint: mean tumor weight, dose: 8.0 mg/kg/injection, schedule: Q01DX011 (ip), vehicle: saline, higher = larger tumour): 86 % of control | T/C [1]: 88 % of control | T/C (endpoint: mean tumor weight, dose: 18.0 mg/kg/injection, schedule: Q01DX011 (ip), vehicle: saline, higher = larger tumour): 122 % of control

CCN(CC)CCCC(C)Nc1c2ccc(Cl)cc2nc2ccc(OC)cc12 (stereo not given)
T/C (endpoint: median survival time, dose: 8.0 mg/kg/injection, schedule: Q01DX009 (ip), vehicle: saline, higher = longer survival): 103 % of control | T/C (endpoint: median survival time, dose: 8.0 mg/kg/injection, schedule: Q01DX009 (ip), vehicle: suspension in saline, higher = longer survival): 95 % of control | T/C (endpoint: median survival time, dose: 16.0 mg/kg/injection, schedule: Q01DX009 (ip), vehicle: saline, higher = longer survival): 101 % of control | T/C (endpoint: median survival time, dose: 16.0 mg/kg/injection, schedule: Q01DX009 (ip), vehicle: suspension in saline, higher = longer survival): 113 % of control | T/C (endpoint: median survival time, dose: 32.0 mg/kg/injection, schedule: Q01DX009 (ip), vehicle: saline with Tween-80, higher = longer survival): 163 % of control | T/C (endpoint: median survival time, dose: 32.0 mg/kg/injection, schedule: Q01DX009 (ip), vehicle: suspension in saline, higher = longer survival): 104 % of control | T/C (endpoint: median survival time, dose: 64.0 mg/kg/injection, schedule: Q01DX009 (ip), vehicle: saline with Tween-80, higher = longer survival): 112 % of control | T/C (endpoint: median survival time, dose: 64.0 mg/kg/injection, schedule: Q01DX009 (ip), vehicle: saline, higher = longer survival): 101 % of control | T/C (endpoint: median survival time, dose: 64.0 mg/kg/injection, schedule: Q01DX009 (ip), vehicle: suspension in saline, higher = longer survival): 105 % of control

CC(=O)O[C@]1(C(C)=O)CC[C@H]2[C@@H]3C[C@H](C)C4=CC(=O)CC[C@]4(C)[C@H]3CC[C@@]21C
T/C (endpoint: median survival time, dose: 50.0 mg/kg/injection, schedule: Q01DX009 (ip), vehicle: Klucel (hydroxypropylcellulose) (HPC), higher = longer survival): 203 % of control | T/C (endpoint: median survival time, dose: 100.0 mg/kg/injection, schedule: Q01DX009 (ip), vehicle: Klucel (hydroxypropylcellulose) (HPC), higher = longer survival): 204 % of control | T/C (endpoint: median survival time, dose: 200.0 mg/kg/injection, schedule: Q01DX009 (ip), vehicle: Klucel (hydroxypropylcellulose) (HPC), higher = longer survival): 119 % of control | T/C (endpoint: median survival time, dose: 400.0 mg/kg/injection, schedule: Q01DX009 (ip), vehicle: Klucel (hydroxypropylcellulose) (HPC), higher = longer survival): 203 % of control

COc1ccc2cc3[n+](cc2c1OC)CCc1cc2c(cc1-3)OCO2
T/C [1]: 96 % of control | T/C (endpoint: median survival time, dose: 0.12 mg/kg/injection, schedule: Q01DX009 (ip), vehicle: Klucel (hydroxypropylcellulose) (HPC), higher = longer survival): 102 % of control | T/C (endpoint: median survival time, dose: 0.25 mg/kg/injection, schedule: Q01DX009 (ip), vehicle: Klucel (hydroxypropylcellulose) (HPC), higher = longer survival): 107 % of control | T/C (endpoint: median survival time, dose: 0.5 mg/kg/injection, schedule: Q01DX009 (ip), vehicle: Klucel (hydroxypropylcellulose) (HPC), higher = longer survival): 112 % of control | T/C (endpoint: median survival time, dose: 1.0 mg/kg/injection, schedule: Q01DX009 (ip), vehicle: Klucel (hydroxypropylcellulose) (HPC), higher = longer survival): 110 % of control | T/C (endpoint: median survival time, dose: 2.0 mg/kg/injection, schedule: Q01DX009 (ip), vehicle: Klucel (hydroxypropylcellulose) (HPC), higher = longer survival): 95 % of control | T/C (endpoint: median survival time, dose: 4.0 mg/kg/injection, schedule: Q01DX009 (ip), vehicle: Klucel (hydroxypropylcellulose) (HPC), higher = longer survival): 100 % of control | T/C (endpoint: median survival time, dose: 8.0 mg/kg/injection, schedule: Q01DX009 (ip), vehicle: Klucel (hydroxypropylcellulose) (HPC), higher = longer survival): 92 % of control

Cc1ccc(N2CCN(CCCN3CCN(c4ccccc4Cl)CC3)CC2)cc1
T/C (endpoint: mean tumor weight, dose: 22.5 mg/kg/injection, schedule: Q01DX011 (ip), vehicle: carboxymethylcellulose (CMC), higher = larger tumour): 108 % of control | T/C (endpoint: mean tumor weight, dose: 45.0 mg/kg/injection, schedule: Q01DX011 (ip), vehicle: carboxymethylcellulose (CMC), higher = larger tumour): 45 % of control | T/C (endpoint: mean tumor weight, dose: 90.0 mg/kg/injection, schedule: Q01DX011 (ip), vehicle: carboxymethylcellulose (CMC), higher = larger tumour): 38 % of control

Oc1ccc(O)c(/C=N/NC(=S)NC2CC3CC2C2C=CCC32)c1 (stereo not given)
T/C (endpoint: median survival time, dose: 25.0 mg/kg/injection, schedule: Q01DX009 (ip), vehicle: olive oil, sesame oil, peanut oil, higher = longer survival): 87 % of control | T/C (endpoint: median survival time, dose: 50.0 mg/kg/injection, schedule: Q01DX009 (ip), vehicle: olive oil, sesame oil, peanut oil, higher = longer survival): 86 % of control

COc1ccccc1NC(=O)CSC(N)=O
T/C (endpoint: mean tumor weight, dose: 125.0 mg/kg/injection, schedule: Q01DX011 (ip), vehicle: carboxymethylcellulose (CMC), higher = larger tumour): 97 % of control | T/C (endpoint: mean tumor weight, dose: 250.0 mg/kg/injection, schedule: Q01DX011 (ip), vehicle: carboxymethylcellulose (CMC), higher = larger tumour): 47 % of control

CN1C2CCC1CC(OC(=O)C(CO)c1ccccc1)C2 (stereo not given)
T/C (endpoint: mean tumor weight, dose: 12.5 mg/kg/injection, schedule: Q01DX011 (ip), vehicle: saline, higher = larger tumour): 92 % of control | T/C (endpoint: mean tumor weight, dose: 50.0 mg/kg/injection, schedule: Q01DX011 (ip), vehicle: saline, higher = larger tumour): 72 % of control | T/C (endpoint: mean tumor weight, dose: 100.0 mg/kg/injection, schedule: Q01DX011 (ip), vehicle: saline, higher = larger tumour): 154 % of control
